From patent US20240238417A1, “METHODS OF PRODUCING TUMOR VACCINES AND USES THEREOF” (priority 2021, published 2024) come the findings set out here.

The test system of data set [1] is Panc02.03 cells. The experiment in a line: XTT viability of Panc02.03 cells after gas exposure in chamber. It is filed as cell-based. Particulars: 10,000 ppm-25,000 ppm gNO for 1-15 minutes. The source says: (§1) Tumor celllines: The mouse colon carcinoma cell line, CT26WT, was cloned from CT26, an N-nitroso-N-methylurethane-induced, undifferentiated colon carcinoma cell line. The mouse mammary tumor cell line, 4T1, is a 6-thioguanine resistant cell line. When injected into BALB/c mice, 4T1 spontaneously produces highly metastatic tumors that can metastasize to the lung, liver, lymph nodes and brain while the primary tumor is growing in situ. […] Panc 02.03 is a pancreatic adenocarcinoma epithelial cell line derived in 1995 from a primary tumor removed from the head-of-the-pancreas of […] with pancreatic adenocarcinoma. CT26, 4T1 and Panc 02.03 cell lines were grown in RPMI based media (ATCC 30-2001) supplemented with fetal bovine serum and pen-strep (both from Biological Industries). The LLC1/LU2 cell line was grown in DMEM based media (ATCC 30-2002) supplemented with fetal bovine serum and pen-strep (Biological industries). The B16.F10 cell lines was grown in DMEM based media (ATCC 30-2002) supplemented with fetal bovine serum and pen-strep (Biologicalindustries).
In vitro systems: One system involves a direct exposure of cancer cells to gNO in 96-well plate. Gaseous NO at 150 ppm-50,000 ppm was delivered at 0.3 LPM for 10 seconds—3 minutes. In another system, cancer cells were exposed to gNO in a box made of acrylic glass. […]

In data set [2] the test system is B16.F10 cells. Kind of data set: XTT viability of B16.F10 cells after gas exposure in chamber. It is filed as cell-based. Particulars: 10,000 ppm-25,000 ppm gNO for 3-15 minutes. The method, then: (§2) In vitro systems: One system involves a direct exposure of cancer cells to gNO in 96-well plate. Gaseous NO at 150 ppm-50,000 ppm was delivered at 0.3 LPM for 10 seconds—3 minutes. In another system, cancer cells were exposed to gNO in a box made of acrylic glass. Gaseous NO at 10,000-50,000 ppm was delivered at 0.9 LPM for 10 seconds—15 minutes.
(§3) The exposure of the cancer cells to gNO was done after removing the cell culture medium.
(§4) Immediately after gas exposure, cell culture medium was added, and the cells were incubated at a 37° C. and 5% CO2 incubator over-night. To test cell viability, XTT assay and Annexin V-Propidium Iodide assays were performed, according to known protocols.
B16.F10 cells were prepared in DMEM medium and suspended in 96-well plates. The plates were placed inside an approx. 2 liter exposure chamber. The plates were exposed to the gas by filling the chamber with gNO for 10 seconds, or 1, 3, 9 or 15 minutes. After exposure, the plates were placed in a 5% CO2, 37° C. incubator for an overnight incubation and the viability of the cells was tested by XTT assay.

The subject of data set [3] is 4T1 challenge tumor. The experiment in a line: Challenge assay in 4T1 tumor-bearing mice. It is filed as in vivo. The conditions noted are these: 50,000 ppm gNO intra-tumorally for 10 minutes. How it is done: (§5) Challenge tumor inoculation: Up to 21 days after gas treatment was applied to the primary tumor, the appropriate cancer cell suspensions were prepared as described herein and inoculation of cells was repeated on the contralateral flank of the mice. Administration was performed as soon as possible following cell suspension preparation and after manual shaking prior to withdrawal of the cell suspension.
(§6) The percentage of challenge tumor take was monitored 2-3 times a week by taking a look at the inoculated site and touching this area to look for small tumors that are not yet visible. Naïve mice inoculated with tumor cells for the first time served as an internal control.
In another challenge assay, 4T1 tumor-bearing mice were treated with 50,000 ppm gNO administered intra-tumorally by a 23G hypodermic needle for 10 minutes, and the effect of a local treatment with gNO on the primary tumor as compared to nitrogen was tested, as depicted in FIG. 16A. Fourteen days post gNO treatment, mice were re-inoculated with 10×10^5 4T1 cells subcutaneously (s.c.) (challenge assay). The percentage of tumor take was monitored by caliper measurements 2-3 times a week for 10 days. Naïve mice, inoculated with 4T1 for the first time, served as the control group. […]

The test system of data set [4] is 4T1 cells. Kind of data set: XTT viability of 4T1 cells after direct gas exposure in 96-well plate. It is filed as cell-based, mouse.
From the text: as §1, §2, §3, §4
The effect of continuous gaseous nitric oxide (gNO) at 150 ppm, 4,000 ppm, 10,000 ppm, or 50,000 ppm, compared to air (control), on the survival of 4T1 cancer cell line was tested. 4T1 cells were prepared in RPMI medium and suspended in six 96-well plates. […]

Data set [5] has as its system CT26 challenge tumor. Kind of data set: Challenge assay in CT26 tumor-bearing mice. It is filed as in vivo. The method, then: as §5, §6
In another challenge assay, the tumors of CT26 tumor-bearing mice were treated with 25,000-200,000 ppm gNO delivered into the tumors using 23G hypodermic needles, as depicted in FIG. 17A.
CT26 tumor-bearing mice treated with 25,000 ppm for 30 minutes, were re-inoculated with CT26 tumor cells 12 days after treatment (n=1) and 14 days after treatment (n=1). The percentage of visible challenge tumor take was assessed 2-3 times a week for more than 50 days.
An additional group of CT26 tumor-bearing mice were treated with 50,000 ppm for 10 minutes, and were re-inoculated with CT26 tumor cells 7 days (n=1) or 9 days (n=1) after treatment. The percentage of challenge tumor take was assessed 2-3 times a week for 12 days.
An additional group of CT26 tumor-bearing mice were treated with 200,000 ppm for 2-35 seconds, were re-inoculated with CT26 tumor cells 14 days (n=2) post treatment. The percentage of visible challenge tumor take was assessed 2-3 times a week for more than 50 days.
Naïve mice, inoculated with CT26 for the first time, served as the control group.
The effect of high-pressure gas treatment on stimulation of anti-tumor immune response was tested in a challenge assay as depicted in FIG. 37A.
Balb/c mice were inoculated subcutaneously (s.c) with the mouse colon cancer cell line, CT26. […]

For `[N]=O` [gNO, nitric oxide], the “viability of Panc02.03 cells” value in data set [1] is reported as “less than 5%”. In addition, the “viability of B16.F10 cells” value in data set [2] was “less than 5%”. Besides, in data set [3] (5 days post challenge tumor inoculation), the “development of a secondary (challenge) 4T1 tumor” value was “have not developed a secondary tumor”. Further, the “challenge tumor take compared to non-treated and nitrogen-treated mice” value in data set [3] (10 days post re-inoculation) was “a delay in the challenge tumor take was achieved”. Besides, the “4T1 cells remain viable” value in data set [4] (4,000-10,000 ppm gNO for 1 minute) was “About 60%”. In addition, the “viability of 4T1 cells” value in data set [4] (10,000 or 50,000 ppm gNO for 180 seconds) is recorded as 1-3%. Also, the “4T1 cells remained viable” value in data set [4] (10,000 ppm or 50,000 ppm gNO for 10 seconds) is on record as “less than 80%”. Besides, the “secondary CT26 tumor cell inoculation at end of follow-up” value in data set [5] (25,000 ppm 30 minutes, 50,000 ppm 10 minutes or 200,000 ppm 2-35 seconds, naive mice 100% tumor take) was “all NO-treated mice rejected a secondary CT26 tumor cell inoculation”. For the same compound, the “tumor-free mice, no primary and challenge tumors” value in data set [5] (25,000 ppm gNO, 0.25 LPM, two 15-minute cycles, outlet pressure 3.5-5.17 bars) was determined as 50%. In addition, the “development of a secondary (challenge) CT26 tumor” value in data set [5] (25,000 ppm gNO, 0.25 LPM, two 15-minute cycles, outlet pressure 3.5-5.17 bars, re-inoculated days 12-14) is “have not developed a secondary tumor”.
